We go through 21 molecules from patent US20250243343A1, “LUBRICANT COMPOSITION FOR PREPARING ETHYLENE-BASED POLYMER AND METHOD OF PREPARING ETHYLENE-BASED POLYMER USING THE SAME” (SK INNOVATION CO., LTD., priority 2024, published 2025).

Data set [1] in a line: Measurement of solubility of the oxidation stabilizer in white mineral oil (visual observation). The settings on record: Table 1.
Method: A lubricant composition was prepared by mixing a white mineral oil and the oxidation stabilizer of Table 1 below in a weight ratio of 100:0.1.
The lubricant composition was left for 1 hour and observed visually. If precipitation occurred or the lubricant composition discolored or became opaque, it was evaluated as “X.” When no precipitation occurred and the lubricant composition was colorless and transparent, it was evaluated as “O.”
A short description of data set [2]: Acrylic acid self-polymerization (time until PAA formation). As to conditions: for polymerization stability time / PAA formation inhibition effect (in words): Table 1; for Polymerization time: oil:stabilizer 100:0.5, AA:lubricant composition 1:1 by weight, 100° C.
Method: The reactor was heated to 100° C., followed by observing whether a self-polymer (PAA) was formed in the reactor every 10 minutes. As soon as the PAA was observed visually, the experiment was stopped and a polymerization time was recorded.
The mark [3] stands for this setting: nitrogen atmosphere, PAA observed visually every 10 minutes.

With `COc1ccc(O)c(C(C)(C)C)c1` [A-1, Butylated hydroxyanisole], the “solubility in the white mineral oil (in words)” value in data set [1] is on record as “high”. In addition, the “polymerization stability time / PAA formation inhibition effect (in words)” value in data set [2] is “greatly increased”. The molecule further showed a Polymerization time in data set [2] (setting [3]) of more than 150 h. For the molecule `COc1cc(C(C)(C)C)c(O)c(C(C)(C)C)c1` [A-2, 2,6-Di-tert-butyl-4-methoxyphenol], in data set [2] (setting [3]), the Polymerization time worked out at 23 h. Still for that read-out and setting: then `COc1ccc(O)c(C(C)(C)C)c1` [A-3, 3-tert-butyl-4-hydroxyanisole], with 72 h. For `Cc1cc(C(C)(C)C)c(O)c(C(C)(C)C)c1` [B-1, Butylated hydroxytoluene], the “polymerization stability time / PAA formation inhibition effect (in words)” value in data set [2] was “greatly reduced”. The Polymerization time in data set [2] (setting [3]) was 2 h. `COc1ccc(O)cc1` [B-2, 4-Methoxyphenol]: in data set [1], the “solubility in the white mineral oil (in words)” value was “greatly decreased”. The same molecule gave a Polymerization time in data set [2] (setting [3]) of more than 150 h. The matching figures for `c1ccc2c(c1)Nc1ccccc1S2` [B-3, Phenothiazine]: “not substantially dissolved” and more than 150 h.

`Cc1c(C)c2c(c(C)c1O)CC[C@@](C)(CCC[C@H](C)CCC[C@H](C)CCCC(C)C)O2` [B-4, Vitamin E]: the Polymerization time in data set [2] (setting [3]) was found to be 0.5 h.

As to `CC(C)(C)c1cccc(C(C)(C)C)c1O` [B-5, 2,6-Di-tert-butylphenol], in data set [2] (class symbol), the Polymerization time entry is “— (When the PAA was formed within 10 minutes, it was evaluated as “-.”)”. As to `CC(C)(C)c1cc(CO)cc(C(C)(C)C)c1O` [B-6, 2,6-Di-tert-butyl-4-hydroxymethylphenol], in data set [2] (setting [3]), the Polymerization time came to 2 h.

Molecule `CC(C)(C)c1cc(C(=O)O)cc(C(C)(C)C)c1O` [B-7, 3,5-Di-tert-butyl-4-hydroxybenzoic acid] had a Polymerization time in data set [2] (setting [3]) of 0.333 h.

For `CCOP(=O)(Cc1cc(C(C)(C)C)c(O)c(C(C)(C)C)c1)OCC` [B-8, Diethyl 3,5-Di-tert-butyl-4-hydroxybenzylphosphonate], in data set [2] (setting [3]), the Polymerization time came out at 0.333 h.

Molecule `CCC(C)(C)c1ccc(O)c(C(C)(C)CC)c1` [B-9, 2,4-Di-tert-amylphenol] came in with a Polymerization time in data set [2] (setting [3]) of 2 h.

In data set [2] (setting [3]), `CCc1cc(Cc2cc(CC)cc(C(C)(C)C)c2O)c(O)c(C(C)(C)C)c1` [B-10, 2,2′-Methylenebis(6-tert-butyl-4-ethylphenol)] displayed a Polymerization time of 0.333 h.

In data set [2] (setting [3]), `CC(C)(C)CC(C)(C)c1cc(O)c(C(C)(C)CC(C)(C)C)cc1O` [B-11, 2,5-Bis(1,1,3,3-tetramethylbutyl) hydroquinone] registered a Polymerization time of 2 h.

As to `CCCCCCCCSc1nc(Nc2cc(C(C)(C)C)c(O)c(C(C)(C)C)c2)nc(SCCCCCCCC)n1` [B-12], the Polymerization time entry in data set [2] (class symbol) was “— (When the PAA was formed within 10 minutes, it was evaluated as “-.”)”. Same read-out and setting: then `CC(C)(C)c1cc(CCC(=O)OCCSCCOC(=O)CCc2cc(C(C)(C)C)c(O)c(C(C)(C)C)c2)cc(C(C)(C)C)c1O` [B-13, 2,2″-Thiodiethylene Bis [3-(3,5-di-tert-butyl-4-hydroxyphenyl) propionate]], with “— (When the PAA was formed within 10 minutes, it was evaluated as “-.”)”. Still for that read-out and setting: then `CCc1cc(C(C)(C)C)c(O)c(C(C)(C)C)c1` [B-14, 2,6-Di-tert-butyl-4-ethylphenol], with “— (When the PAA was formed within 10 minutes, it was evaluated as “-.”)”.

Regarding `CC(C)(C)c1cc(O)c(O)c(C(C)(C)C)c1` [B-17, 3,5-Di-tert-butylcatechol], in data set [2] (setting [3]), the Polymerization time came to 5 h.

`CCCCCCCCOc1ccc(C(=O)c2ccccc2)c(O)c1` [B-18, 2-hydroxy-4-n-octyloxybenzophenone]: the Polymerization time in data set [2] (setting [3]) came out at 0.333 h. Still for that read-out and setting: the value for `CCCCCCCCSc1nc(Nc2cc(C(C)(C)C)c(O)c(C(C)(C)C)c2)nc(SCCCCCCCC)n1` [B-19] was 0.333 h. bis(nonylphenyl)amine [B-16] yielded a Polymerization time in data set [2] (setting [3]) of 0.667 h.
